Holding throughout (assay): DTP human tumour cell line panel, 48 h
The subject of experiment [1] is A549 NSCLC.
Experiment [2] relates to CAKI-1 renal.
Experiment [3] deals with UACC-62 melanoma.
The test system of experiment [4] is U251 CNS.
Experiment [5] has as its system OVCAR-3 ovarian.
Experiment [6] has as its system HOP-92 NSCLC.
In experiment [7] the test system is SK-MEL-28 melanoma.
For experiment [8], the system named is LOX IMVI melanoma.
For experiment [9], the system named is SR leukemia.

This passage reports TGI and GI50 results from PubChem BioAssay (NCI).

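In this assay, cells in 96-well plates receive the compound at five concentrations for 48 hours. Endpoints are linearly interpolated between the surrounding concentrations. GI50 = concentration required for 50% inhibition of growth. TGI denotes the concentration required for complete inhibition of growth.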

The TGI is the concentration at which net growth stops. A low value points to greater sensitivity of the cells. For the compound `CCCCCCCCCCCCCCCCOCC(CC(F)(F)P(=O)(OCC)OCC)OC(C)=O` (stereo unspecified), the TGI in [1] amounted to 24.7 µM; in experiment [2], 30.3 µM; in [3], 30.2 µM; in experiment [4] it was 13.7 µM; in experiment [5], 31.4 µM; in [6] it was 23.1 µM. The same compound displayed a TGI in experiment [7] of 32.4 µM.
Turning to `C/C=C\C(CC(=O)NCCC1CN(S(=O)(=O)c2ccc(C)cc2)c2ccccc21)CC(=O)OC` (stereo unspecified), the TGI in [1], in experiment [2], in experiment [3], in [4], in experiment [5] and in experiment [6] was more than 100 µM each time. The TGI in [7] was more than 100 µM.
Take `COC(=O)c1sc(=S)sc1SCc1ccc(CSc2sc(=S)sc2C(=O)OC)cc1`: the TGI in [1], in experiment [2], in experiment [8], in experiment [3], in [4] and in experiment [5] was more than 100 µM each time. For the same compound, the TGI in [6] and in experiment [7] was more than 100 µM throughout.
As to `Cc1nn(C(=O)Cc2ccccc2)c2c1C(c1ccc(O)cc1O)SC(N)=N2` (stereo unspecified), the TGI in [1], in experiment [2], in experiment [9], in [8], in [3] and in [7] was more than 100 µM in each case.
Regarding `O=c1ccn([C@@H]2C[C@@H]2CO)c(=O)[nH]1`, the TGI in experiment [1], in experiment [2], in experiment [9], in [8], in experiment [3] and in experiment [4] was more than 100 µM each time. The TGI in [6] and in [7] was more than 100 µM throughout.
As to `CCN(CC)/C(Sc1ccccc1)=C(\C(Cl)=C(Cl)Cl)[N+](=O)[O-]`, the TGI was 52.4 µM in [1]; 29.2 µM in [2]; 25.8 µM in experiment [8]; 43.7 µM in experiment [3]; 32.7 µM in experiment [5]; 36.4 µM in experiment [6]. For the same compound, in [7], the TGI came out at 32 µM.
Take `CCOC(=O)c1c(N)sc2c1C(C)(C(=O)OCC)CC2` (stereo unspecified): the concentration for total growth inhibition (TGI) in [1], in [9], in experiment [3], in [4], in [6] and in experiment [7] was more than 100 µM in each case.
With `Cc1cccc(N(C(=O)Nc2ccc(Cl)c(Cl)c2)C2=NCC(C)S2)c1` (stereo unspecified), the TGI in experiment [1] was more than 100 µM; in experiment [2], more than 100 µM; in experiment [9] it was more than 100 µM; in experiment [8] it was 86.5 µM; in experiment [4], more than 100 µM; in experiment [5], more than 100 µM. For the same compound, the TGI in [6] and in [7] was more than 100 µM each time.
`CC(=O)O[C@H]1[C@@H]2OC(=O)[C@@](O)(CC3CCCO3)[C@@H]2CC(=O)[C@](C)(O)CC/C=C(\C)CCC[C@@H]1C` (stereo partly specified): the TGI is more than 100 µM in [1]; 44.5 µM in [2]; 46.1 µM in experiment [8]; more than 100 µM in [3]; more than 100 µM in [4]; more than 100 µM in [5]. Moreover, the TGI in experiment [6] amounted to 87.7 µM; in experiment [7] it was 44.5 µM.
Consider `O=C(NCCNCCCNC(=O)c1cc(-c2ccccc2)nc2ccccc12)c1cccc(O)c1O`, for which the TGI was more than 100 µM in [1]; more than 100 µM in experiment [2]; more than 100 µM in [8]; 12.1 µM in experiment [3]; 17.6 µM in experiment [4]; 26.3 µM in experiment [5]. For the same compound, the figures for the TGI in [6] and in [7] were 62.9 µM and 18.5 µM, respectively.
As for `O=C1CSC(c2ccc([N+](=O)[O-])cc2)N1c1ccc(-n2c(-c3ccccc3)nc3ccccc3c2=O)cc1` (stereo unspecified), the TGI in [1], in experiment [2], in experiment [9], in experiment [8], in [3] and in experiment [4] was more than 100 µM in each case. For the same compound, the TGI in experiment [5] and in experiment [7] was more than 100 µM in each case.
As for `CC[C@@H]1CC[C@@H]2[C@H](CC[C@]3(C)[C@@H](OS(=O)(=O)c4ccc(C)cc4)CC[C@@H]23)[C@H]1COS(=O)(=O)c1ccc(C)cc1`, the TGI in experiment [1], in experiment [9], in experiment [8], in [4], in [6] and in experiment [7] was more than 100 µM in each case.
As for `CCn1c(SCC(=O)NNC(=S)Nc2ccc([N+](=O)[O-])cc2)nc2ccccc2c1=O`, the TGI in [1], in [2], in experiment [9], in [8], in [3] and in [4] was more than 100 µM in each case. The TGI in experiment [5] and in [7] was more than 100 µM in each case.
As for `N#CC(=C1CCN(CCCC(=O)c2ccc(F)cc2)CC1)c1ccccc1`, the TGI in [1], in experiment [2], in [9], in experiment [8], in experiment [3] and in experiment [4] was more than 100 µM in each case. Besides, the TGI in experiment [6] and in experiment [7] was more than 100 µM in each case.
In the case of `Cc1ccc(N(C(=O)Nc2ccccc2)C2=NCC(C)S2)cc1C` (stereo unspecified), the TGI in experiment [1] was more than 100 µM; in experiment [2], more than 10 µM; in experiment [9], 86 µM; in [8], 30.3 µM; in experiment [4] it was 51.3 µM; in experiment [5], 32 µM. For the same compound, the TGI was 43.3 µM in experiment [6] and 31.2 µM in experiment [7].
For the compound `Cc1ccc(NC2=CC(=O)C(NO)c3ccccc32)cc1` (stereo unspecified), the TGI in experiment [1] was determined as 10.6 µM; in experiment [2], 6.73 µM; in experiment [8] it was 11.7 µM; in experiment [3], 4 µM; in experiment [4], 11.9 µM; in [5], 5.57 µM. Also, the values for the TGI in [6] and in experiment [7] were 8.25 µM and 29.5 µM, respectively.
In the case of `O=S(Nc1ccccc1)c1cccc(Cl)c1` (stereo unspecified), the TGI in experiment [1], in experiment [2], in experiment [9], in experiment [8], in [4] and in [5] was more than 100 µM throughout. Besides, the TGI in experiment [7] is more than 100 µM.
For the compound `COc1ccc(CNC(=O)NCn2cc(-c3ccccc3)nn2)cc1`, the TGI in experiment [1], in experiment [2], in [9], in experiment [8], in experiment [4] and in experiment [6] was more than 100 µM each time. The TGI in [7] is more than 100 µM.
With `CCSc1n/c(=C\c2ccco2)c2nncn12`, the concentration for total growth inhibition (TGI) in [1], in [9], in experiment [8], in [3], in experiment [4] and in [5] was more than 100 µM in each case. Also, the TGI in [6] and in [7] was more than 100 µM in each case.
For `CC(C)C1=CC23CCC4C(C)(C(=O)O)CCCC4(C)C2CC1C1C(=O)N(c2ccccc2N2C(=O)C4C5CC6C7(C)CCCC(C)(C(=O)O)C7CCC6(C=C5C(C)C)C4C2=O)C(=O)C13` (stereo unspecified), the TGI in experiment [1] worked out at 38.7 µM; in experiment [9], 17.3 µM; in experiment [4], 12 µM; in experiment [5], 23.4 µM; in experiment [6], 32.5 µM.
As to `CCOC(=O)Cn1c(=O)c2nc(SC)sc2n(CC)c1=S`, the TGI in experiment [1], in experiment [9], in experiment [8], in experiment [4], in [5] and in experiment [6] was more than 100 µM throughout. Further, the TGI in experiment [7] was more than 100 µM.
On to `S=C1N(/N=C/c2c3ccccc3cc3ccccc23)C(=Nc2ccccc2)C(=Nc2ccccc2)N1c1ccccc1`, for which the TGI in [1], in [2], in [9], in experiment [3], in experiment [4] and in experiment [5] was more than 100 µM throughout. Besides, the TGI in [6] and in experiment [7] was more than 100 µM each time.
Usually GI50 stands for the concentration that inhibits growth by half. In the case of `COc1cccc([C@H]2C/C(=N\NC(=O)C(=O)N[C@@H](C)c3ccccc3)c3ccccc3N2)c1`, the GI50 in experiment [1] is 0.0366 µM; in experiment [4] it was 0.0325 µM; in [6], 0.422 µM. The TGI was more than 100 µM in experiment [1]; 54.1 µM in [2]; more than 100 µM in experiment [8]; 0.0962 µM in [3]; more than 100 µM in experiment [4]; more than 100 µM in experiment [5]. Also, the total growth inhibition concentration (TGI) in experiment [6] and in experiment [7] was more than 100 µM throughout.
Take `O=C1NCc2ccccc2S(=O)(=O)n2cccc21`: the total growth inhibition concentration (TGI) in experiment [1], in [2], in experiment [9], in [8], in [3] and in experiment [4] was more than 100 µM each time. Further, the TGI in experiment [5] and in experiment [7] was more than 100 µM throughout.
For the compound `CN(C)CCN(C)c1ccc2c(=O)n(CCN(C)C)c(=O)n3c4ccccc4c(=O)c1c23`, the TGI was 22.7 µM in [1]; 1.08 µM in experiment [2]; 5.53 µM in experiment [8]; 2.6 µM in experiment [3]; 8.93 µM in [4]; 12.6 µM in experiment [5]. The TGI in experiment [6] worked out at 1.82 µM; in experiment [7] it was 6.81 µM.
In the case of `CC1=NN(c2nc(N)nc(CSc3nc4n(c(=S)n3)CCN4)n2)C(C)(C)C1`, the total growth inhibition concentration (TGI) in experiment [2] was 61.2 µM; in experiment [9], more than 100 µM; in experiment [8], more than 100 µM; in [3] it was more than 100 µM; in experiment [4], more than 100 µM; in experiment [6] it was 44.3 µM. This compound came in with a TGI in experiment [7] of more than 100 µM.
Consider `Cc1ccc(/C=C/c2nnc(N/N=C/c3ccc4c(c3)OCO4)[nH]c2=O)cc1`, for which the TGI is more than 100 µM in experiment [1]; 91.8 µM in experiment [2]; 40.9 µM in [9]; 37.7 µM in [8]; 33.6 µM in experiment [4]; 36.2 µM in experiment [5]. The TGI in experiment [7] is 30.9 µM.
As for `CC(=O)Oc1ccc(-c2cc3ccccc3oc2=O)cc1`, the TGI in [1] is more than 100 µM; in [9], more than 100 µM; in [8] it was more than 100 µM; in [4] it was more than 100 µM; in [5], 70.9 µM; in [6] it was more than 100 µM. The TGI in [7] is more than 100 µM.
For `C=CCC1(OC(C)=O)C2OC(=O)C1(O)OCC2O` (stereo unspecified), the TGI in experiment [1], in [2], in experiment [9], in experiment [8], in experiment [3] and in experiment [4] was more than 100 µM in each case. The TGI in [5] and in experiment [7] was more than 100 µM throughout.
Turning to `CC(C)=CCC/C(=C/CC/C(=C\CCc1ccoc1)C(=O)O)C(=O)O`, the TGI in experiment [1], in experiment [2], in experiment [8], in experiment [3], in experiment [4] and in experiment [5] was more than 100 µM in each case. For the same compound, the TGI in [6] and in [7] was more than 100 µM throughout.
Regarding `CCOP(=O)(OCC)C(C)(CC)N/C(=N/C(NC(C)=O)(C(F)(F)F)C(F)(F)F)NC1=NC(C(F)(F)F)(C(F)(F)F)N=C(C(F)(F)F)O1` (stereo unspecified), the total growth inhibition concentration (TGI) in [1], in [2], in experiment [8], in experiment [3], in experiment [4] and in [5] was more than 100 µM each time. Also, the TGI in [6] was 63.9 µM; in experiment [7], more than 100 µM.
As to `CC1=NN(c2cccc(Cl)c2)C2(SCC(=O)N2c2nc3ccccc3s2)/C1=C\c1cccs1` (stereo unspecified), the TGI in [1] turned out to be 92.8 µM; in experiment [2] it was 99 µM; in experiment [9], 30.1 µM; in experiment [8] it was 66.5 µM; in [4], 41.6 µM; in experiment [5], 86.8 µM. Besides, the TGI came to 53.6 µM in experiment [6] and 85.6 µM in experiment [7].
